Reference: the supplement of paper PMC10307832

Key:
Assay in all cases: relative viability (nuclei count vs DMSO), 5 days (fraction); higher = more cells survive
ChaGo-K-1 = system: ChaGo-K-1
Procedure, shortened: (§1)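 Relative viability was taken as the ratio of nuclei in treated wells to nuclei in vehicle wells. Lung cancer cell lines in 1536-well plates received compounds by pin tool one day after seeding, either one drug alone or a fixed anchor-drug dose plus five library-drug doses (not always all listed) in √10 steps. Nuclei were counted on 4× images after 5 days of treatment, and values are medians of duplicate plates.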

EKVX = system: EKVX
Procedure, shortened: as §1

EMC-BAC-2 = system: EMC-BAC-2
Procedure, shortened: as §1

EPLC-272H = system: EPLC-272H
Procedure, shortened: as §1

HCC-78 = system: HCC-78
Procedure, shortened: as §1

HCC-827 = system: HCC-827
Procedure, shortened: as §1

LCLC-103H = system: LCLC-103H
Procedure, shortened: as §1

LK-2 = system: LK-2
Procedure, shortened: as §1

LU99A = system: LU99A
Procedure, shortened: as §1

NCI-H1563 = system: NCI-H1563
Procedure, shortened: as §1

NCI-H1666 = system: NCI-H1666
Procedure, shortened: as §1

NCI-H1975 = system: NCI-H1975
Procedure, shortened: as §1

NCI-H2126 = system: NCI-H2126
Procedure, shortened: as §1

NCI-H2342 = system: NCI-H2342
Procedure, shortened: as §1

NCI-H23 = system: NCI-H23
Procedure, shortened: as §1

NCI-H2405 = system: NCI-H2405
Procedure, shortened: as §1

NCI-H322M = system: NCI-H322M
Procedure, shortened: as §1

PC-14 = system: PC-14
Procedure, shortened: as §1

RERF-LC-KJ = system: RERF-LC-KJ
Procedure, shortened: as §1

SK-LU-1 = system: SK-LU-1
Procedure, shortened: as §1

SW 1573 = system: SW 1573
Procedure, shortened: as §1

SW 900 = system: SW 900
Procedure, shortened: as §1

Nc1ccn([C@@H]2O[C@H](CO)[C@@H](O)[C@@H]2O)c(=O)n1 [Cytarabine] + N=C(N)NC(=N)NCCc1ccccc1 [Phenformin] (partner 250 µM)
relative viability (ChaGo-K-1; first compound 0.005 µM): 0.421
relative viability (ChaGo-K-1; first compound 0.01581 µM): 0.342
relative viability (ChaGo-K-1; first compound 0.05 µM): 0.323
relative viability (ChaGo-K-1; first compound 0.1581 µM): 0.176
relative viability (ChaGo-K-1; first compound 0.5 µM): 0.181
relative viability (EKVX; first compound 0.005 µM): 0.217
relative viability (EKVX; first compound 0.01581 µM): 0.192
relative viability (EKVX; first compound 0.05 µM): 0.172
relative viability (EKVX; first compound 0.1581 µM): 0.211
relative viability (EKVX; first compound 0.5 µM): 0.207
relative viability (EMC-BAC-2; first compound 0.005 µM): 0.418
relative viability (EMC-BAC-2; first compound 0.01581 µM): 0.482
relative viability (EMC-BAC-2; first compound 0.05 µM): 0.398
relative viability (EMC-BAC-2; first compound 0.1581 µM): 0.268
relative viability (EMC-BAC-2; first compound 0.5 µM): 0.196
relative viability (EPLC-272H; first compound 0.005 µM): 0.249
relative viability (EPLC-272H; first compound 0.01581 µM): 0.277
relative viability (EPLC-272H; first compound 0.05 µM): 0.26
relative viability (EPLC-272H; first compound 0.1581 µM): 0.147
relative viability (EPLC-272H; first compound 0.5 µM): 0.214
relative viability (HCC-78; first compound 0.005 µM): 0.8
relative viability (HCC-78; first compound 0.01581 µM): 0.629
relative viability (HCC-78; first compound 0.05 µM): 0.466
relative viability (HCC-78; first compound 0.1581 µM): 0.363
relative viability (HCC-78; first compound 0.5 µM): 0.366
relative viability (HCC-827; first compound 0.005 µM): 0.321
relative viability (HCC-827; first compound 0.01581 µM): 0.258
relative viability (HCC-827; first compound 0.05 µM): 0.195
relative viability (HCC-827; first compound 0.1581 µM): 0.141
relative viability (HCC-827; first compound 0.5 µM): 0.158
relative viability (LCLC-103H; first compound 0.005 µM): 0.332
relative viability (LCLC-103H; first compound 0.01581 µM): 0.365
relative viability (LCLC-103H; first compound 0.05 µM): 0.335
relative viability (LCLC-103H; first compound 0.1581 µM): 0.31
relative viability (LCLC-103H; first compound 0.5 µM): 0.311
relative viability (LK-2; first compound 0.005 µM): 0.357
relative viability (LK-2; first compound 0.01581 µM): 0.247
relative viability (LK-2; first compound 0.05 µM): 0.288
relative viability (LK-2; first compound 0.1581 µM): 0.149
relative viability (LK-2; first compound 0.5 µM): 0.196
relative viability (LU99A; first compound 0.005 µM): 1.07
relative viability (LU99A; first compound 0.01581 µM): 0.747
relative viability (LU99A; first compound 0.05 µM): 0.871
relative viability (LU99A; first compound 0.1581 µM): 0.775
relative viability (LU99A; first compound 0.5 µM): 0.808
relative viability (NCI-H1563; first compound 0.005 µM): 0.548
relative viability (NCI-H1563; first compound 0.01581 µM): 0.642
relative viability (NCI-H1563; first compound 0.05 µM): 0.706
relative viability (NCI-H1563; first compound 0.1581 µM): 0.56
relative viability (NCI-H1563; first compound 0.5 µM): 0.567
relative viability (NCI-H1666; first compound 0.005 µM): 0.545
relative viability (NCI-H1666; first compound 0.01581 µM): 0.669
relative viability (NCI-H1666; first compound 0.05 µM): 0.466
relative viability (NCI-H1666; first compound 0.1581 µM): 0.401
relative viability (NCI-H1666; first compound 0.5 µM): 0.396
relative viability (NCI-H1975; first compound 0.005 µM): 0.331
relative viability (NCI-H1975; first compound 0.01581 µM): 0.344
relative viability (NCI-H1975; first compound 0.05 µM): 0.31
relative viability (NCI-H1975; first compound 0.1581 µM): 0.193
relative viability (NCI-H1975; first compound 0.5 µM): 0.177
relative viability (NCI-H2126; first compound 0.005 µM): 0.472
relative viability (NCI-H2126; first compound 0.01581 µM): 0.464
relative viability (NCI-H2126; first compound 0.05 µM): 0.421
relative viability (NCI-H2126; first compound 0.1581 µM): 0.277
relative viability (NCI-H2126; first compound 0.5 µM): 0.271
relative viability (NCI-H2342; first compound 0.005 µM): 0.543
relative viability (NCI-H2342; first compound 0.01581 µM): 0.57
relative viability (NCI-H2342; first compound 0.05 µM): 0.482
relative viability (NCI-H2342; first compound 0.1581 µM): 0.449
relative viability (NCI-H2342; first compound 0.5 µM): 0.404
relative viability (NCI-H23; first compound 0.005 µM): 0.784
relative viability (NCI-H23; first compound 0.01581 µM): 0.649
relative viability (NCI-H23; first compound 0.05 µM): 0.721
relative viability (NCI-H23; first compound 0.1581 µM): 0.367
relative viability (NCI-H23; first compound 0.5 µM): 0.156
relative viability (NCI-H2405; first compound 0.005 µM): 0.387
relative viability (NCI-H2405; first compound 0.01581 µM): 0.34
relative viability (NCI-H2405; first compound 0.05 µM): 0.288
relative viability (NCI-H2405; first compound 0.1581 µM): 0.238
relative viability (NCI-H2405; first compound 0.5 µM): 0.258
relative viability (NCI-H322M; first compound 0.005 µM): 0.704
relative viability (NCI-H322M; first compound 0.01581 µM): 0.614
relative viability (NCI-H322M; first compound 0.05 µM): 0.53
relative viability (NCI-H322M; first compound 0.1581 µM): 0.372
relative viability (NCI-H322M; first compound 0.5 µM): 0.337
relative viability (PC-14; first compound 0.005 µM): 0.499
relative viability (PC-14; first compound 0.01581 µM): 0.316
relative viability (PC-14; first compound 0.05 µM): 0.259
relative viability (PC-14; first compound 0.1581 µM): 0.0817
relative viability (PC-14; first compound 0.5 µM): 0.0908
relative viability (RERF-LC-KJ; first compound 0.005 µM): 0.381
relative viability (RERF-LC-KJ; first compound 0.01581 µM): 0.369
relative viability (RERF-LC-KJ; first compound 0.05 µM): 0.308
relative viability (RERF-LC-KJ; first compound 0.1581 µM): 0.298
relative viability (RERF-LC-KJ; first compound 0.5 µM): 0.274
relative viability (SK-LU-1; first compound 0.005 µM): 0.353
relative viability (SK-LU-1; first compound 0.01581 µM): 0.413
relative viability (SK-LU-1; first compound 0.05 µM): 0.445
relative viability (SK-LU-1; first compound 0.1581 µM): 0.241
relative viability (SK-LU-1; first compound 0.5 µM): 0.2
relative viability (SW 1573; first compound 0.005 µM): 0.342
relative viability (SW 1573; first compound 0.01581 µM): 0.287
relative viability (SW 1573; first compound 0.05 µM): 0.218
relative viability (SW 1573; first compound 0.1581 µM): 0.131
relative viability (SW 1573; first compound 0.5 µM): 0.109
relative viability (SW 900; first compound 0.005 µM): 0.472
relative viability (SW 900; first compound 0.01581 µM): 0.395
relative viability (SW 900; first compound 0.05 µM): 0.367
relative viability (SW 900; first compound 0.1581 µM): 0.18
relative viability (SW 900; first compound 0.5 µM): 0.155
